Data set [1] deals with NZOV9. Nature of the data set: Cellular growth inhibition, NZOV9 (3H-thymidine incorporation). In kind it is cell-based, human. As for the experimental part:
(§1) The compounds were evaluated against two early passage human cell lines NZB5 and NZOV9 (Marshall et al., Oncol. Res. 2004, 14, 297). The cells were grown in ITS medium (α-modified minimal essential medium supplemented insulin, transferrin, selenite, and 5% fetal bovine serum) and grown on 96-well tissue culture plates under an atmosphere of 5% O2, 5% CO2, and 90% N2. Individual wells contained 500-1,000 cells (depending on the growth rate) in a volume of 150 μL. Compounds were added at 10-fold concentration steps to a maximum of 20 μM and plates were incubated for five days, with ^3H-thymidine being added over the last 6 hrs. Cells were harvested and incorporated radioactivity measured. Duplicate samples were analyzed for each compound dose with multiple control samples.
In general terms: Incorporation of labelled thymidine or its analogues reports DNA synthesis.

The test system of data set [2] is NZB5. Nature of the data set: Cellular growth inhibition, NZB5 (3H-thymidine incorporation). In kind it is cell-based, human. As for the experimental part:
as §1

[3] abbreviates: Homo sapiens, NZOV9, read-out: Cell IC50 NZOV9.
Setting [4] is: Homo sapiens, NZB5, read-out: Cell IC50 NZB5.
[5] abbreviates: Homo sapiens, NZOV9, five days incubation, 3H-thymidine over the last 6 hrs, read-out: Cell IC50 NZOV9.
[6] abbreviates: Homo sapiens, NZB5, five days incubation, 3H-thymidine over the last 6 hrs, read-out: Cell IC50 NZB5.
[7] abbreviates: read-out: Cell IC50 NZOV9, five days incubation, 3H-thymidine over the last 6 hrs.
Setting [8] is: read-out: Cell IC50 NZB5, five days incubation, 3H-thymidine over the last 6 hrs.

Structures can show the parent of a compound that is named as a salt. Where two headings read alike, the source gives them in different places.

Broadly, the IC50 is the concentration at which inhibition is half-maximal. One may read the melting point as the temperature, or range, at which the solid turns liquid. In turn, `COc1cccc2c1nc(C(F)F)n2-c1nc(N2CCOCC2)nc(N2CCN(S(C)(=O)=O)CC2)n1` [Example 2, 2-(difluoromethyl)-4-methoxy-1-[4-[4-(methylsulfonyl)-1-piperazinyl]-6-(4-morpholinyl)-1,3,5-triazin-2-yl]-1H-benzimidazole] returned a melting point of 311 to 314 °C. Besides, in data set [1] (setting [3]), the half-maximal inhibitory concentration (IC50) fell in the range of 100 to 1000 nM. Further, in data set [2] (setting [4]), the 50% inhibitory concentration (IC50) was in the range of 100 to 1000 nM.
The compound `COc1cccc2c1nc(C(F)F)n2-c1nc(-c2ccc(NS(=O)(=O)CCN(C)C)cc2)nc(N2CCOCC2)n1` (as salt: methanesulfonate) [Example 74, N-{4-[4-[2-(difluoromethyl)-4-methoxy-1H-benzimidazol-1-yl]-6-(4-morpholinyl)-1,3,5-triazin-2-yl]phenyl}-2-(dimethylamino)ethanesulfonamide] showed a melting point of 218 to 220 °C.
In turn, `COc1cccc2c1nc(C(F)F)n2-c1nc(N2CCOCC2)nc(N2CCC(NS(C)(=O)=O)C2)n1` (stereo in doubt) [Example 38, N-{(3S)-1-[4-[2-(difluoromethyl)-4-methoxy-1H-benzimidazol-1-yl]-6-(4-morpholinyl)-1,3,5-triazin-2-yl]pyrrolidinyl}methanesulfonamide] showed a melting point of 290 to 292 °C. Besides, the IC50 in data set [1] (setting [3]) was < 100 nM. Besides, the 50% inhibitory concentration (IC50) in data set [2] (setting [4]) is 100 to 1000 nM.
For `COc1cccc2c1nc(C(F)F)n2-c1nc(N2CCOCC2)nc(N2CCCC(NS(C)(=O)=O)C2)n1` (stereo in doubt) [Example 46, N-{(3S)-1-[4-[2-(difluoromethyl)-4-methoxy-1H-benzimidazol-1-yl]-6-(4-morpholinyl)-1,3,5-triazin-2-yl]piperidinyl}methanesulfonamide], in that order: 220 to 221 °C, < 100 nM and 100 to 1000 nM.
For `COc1cccc2c1nc(C(F)F)n2-c1nc(N[C@@H]2CCN(S(C)(=O)=O)C2)nc(N2CCOCC2)n1` [Example 32, 4-[2-(difluoromethyl)-4-methoxy-1H-benzimidazol-1-yl]-N-[(3R)-1-(methylsulfonyl)pyrrolidinyl]-6-(4-morpholinyl)-1,3,5-triazin-2-amine], in that order: 260 to 261 °C, < 100 nM and 100 to 1000 nM.
With `COc1cccc2c1nc(C(F)F)n2-c1nc(N2CCOCC2)c2cnn(C3CCN(S(=O)(=O)CCN(C)C)CC3)c2n1` [Example 99, N-[2-({4-[6-[2-(difluoromethyl)-4-methoxy-1H-benzimidazol-1-yl]-4-(4-morpholinyl)-1H-pyrazolo[3,4-d]pyrimidin-1-yl]-1-piperidinyl}sulfonyl)ethyl]-N,N-dimethylamine], the IC50 in data set [1] (setting [5]) and in data set [2] (setting [6]) was < 100 nM each time.
As for `COc1cccc2c1nc(C(F)F)n2-c1nc(OC2CCN(S(=O)(=O)CCN3CCOCC3)CC2)nc(N2CCOCC2)n1` (as salt: hydrochloride) [Example 51, 2-(difluoromethyl)-4-methoxy-1-{4-(4-morpholinyl)-6-[(1-{[2-(4-morpholinyl)ethyl]sulfonyl}-4-piperidinyl)oxy]-1,3,5-triazin-2-yl}-1H-benzimidazole], the melting point was 255 to 259 °C.
Take `COc1cc(N)cc2c1nc(C(F)F)n2-c1nc(N2CCOCC2)nc(N2CCN(S(=O)(=O)CCN(C)C)CC2)n1` (as salt: methanesulfonate) [Example 84, N-[2-({4-[4-[6-amino-2-(difluoromethyl)-4-methoxy-1H-benzimidazol-1-yl]-6-(4-morpholinyl)-1,3,5-triazin-2-yl]-1-piperazinyl}sulfonyl)ethyl]-N,N-dimethylamine]: the melting point is 238 °C (dec.).
`COc1cccc2c1nc(C(F)F)n2-c1nc(N2CCOCC2)nc(N(C)C2CCCN(S(C)(=O)=O)C2)n1` (centres unmarked) yielded a melting point of 201 to 203 °C.
Take `COc1cccc2c1nc(C(F)F)n2-c1nc(-c2ccc(S(=O)(=O)N3CCN(C)CC3)cc2)nc(N2CCOCC2)n1` (as salt: methanesulfonate) [Example 95, 2-(difluoromethyl)-4-methoxy-1-[4-{4-[(4-methyl-1-piperazinyl)sulfonyl]phenyl}-6-(4-morpholinyl)-1,3,5-triazin-2-yl]-1H-benzimidazole]: the melting point is 289 to 292 °C.
Still for that read-out and setting: in the case of `COc1cccc2c1nc(C(F)F)n2-c1nc(N2CCOCC2)nc(N2CCC(N(CCCN(C)C)S(=O)(=O)CCl)CC2)n1` (as salt: hydrochloride) [Example 60, chloro-N-{1-[4-[2-(difluoromethyl)-4-methoxy-1H-benzimidazol-1-yl]-6-(4-morpholinyl)-1,3,5-triazin-2-yl]-4-piperidinyl}-N-[3-(dimethylamino)propyl]methanesulfonamide] it was 260 to 263 °C.
With `COc1cccc2c1nc(C(F)F)n2-c1nc(N[C@H]2CC[C@@H](NS(C)(=O)=O)CC2)nc(N2CCOCC2)n1` [Example 79, cis-N-(4-{[4-[2-(difluoromethyl)-4-methoxy-1H-benzimidazol-1-yl]-6-(4-morpholinyl)-1,3,5-triazin-2-yl]amino}cyclohexyl)methanesulfonamide], the IC50 in data set [1] (setting [3]) is < 100 nM; in data set [2] (setting [4]), 100 to 1000 nM.
Take `COc1cccc2c1nc(C(F)F)n2-c1nc(OC2CCN(S(=O)(=O)CCN3CCOCC3)CC2)nc(N2CCOCC2)n1` [Example 51, 2-(difluoromethyl)-4-methoxy-1-{4-(4-morpholinyl)-6-[(1-{[2-(4-morpholinyl)ethyl]sulfonyl}-4-piperidinyl)oxy]-1,3,5-triazin-2-yl}-1H-benzimidazole]: the 50% inhibitory concentration (IC50) in data set [1] (setting [5]) was 100 to 1000 nM; in data set [2] (setting [6]), > 1000 nM.
Turning to `COc1cccc2c1nc(C(F)F)n2-c1nc(N2CCOCC2)nc(N(C)[C@H]2CCN(S(C)(=O)=O)C2)n1` [Example 35, 4-[2-(difluoromethyl)-4-methoxy-1H-benzimidazol-1-yl]-N-methyl-N-[(3S)-1-(methylsulfonyl)pyrrolidinyl]-6-(4-morpholinyl)-1,3,5-triazin-2-amine], the half-maximal inhibitory concentration (IC50) in data set [1] (setting [7]) and in data set [2] (setting [8]) was < 100 nM in each case.
In turn, `COc1cccc2c1nc(C(F)F)n2-c1nc(N2CCOCC2)c2cnn(C3CCN(S(=O)(=O)CCN(C)C)CC3)c2n1` (as salt: methanesulfonate) [Example 99, N-[2-({4-[6-[2-(difluoromethyl)-4-methoxy-1H-benzimidazol-1-yl]-4-(4-morpholinyl)-1H-pyrazolo[3,4-d]pyrimidin-1-yl]-1-piperidinyl}sulfonyl)ethyl]-N,N-dimethylamine] gave a melting point of 191 to 193 °C.
As for `COc1cccc2c1nc(C(F)F)n2-c1nc(N[C@H]2CCN(S(C)(=O)=O)C2)nc(N2CCOCC2)n1` [Example 34, 4-[2-(difluoromethyl)-4-methoxy-1H-benzimidazol-1-yl]-N-[(3S)-1-(methylsulfonyl)pyrrolidinyl]-6-(4-morpholinyl)-1,3,5-triazin-2-amine], the figures for the IC50 in data set [1] (setting [7]) and in data set [2] (setting [8]) were < 100 nM and 100 to 1000 nM, respectively.
Regarding `COc1cc(N)cc2c1nc(C(F)F)n2-c1nc(N2CCOCC2)nc(N2CCN(S(=O)(=O)CCN(C)C)CC2)n1` [Example 84, N-[2-({4-[4-[6-amino-2-(difluoromethyl)-4-methoxy-1H-benzimidazol-1-yl]-6-(4-morpholinyl)-1,3,5-triazin-2-yl]-1-piperazinyl}sulfonyl)ethyl]-N,N-dimethylamine], the IC50 in data set [1] (setting [5]) was > 1000 nM; in data set [2] (setting [6]), < 100 nM.
On to `CN(C)CCS(=O)(=O)N1CCN(c2nc(N3CCOCC3)nc(-n3c(C(F)F)nc4ccccc43)n2)CC1` (as salt: hydrochloride) [Example 83, N-[2-({4-[4-[2-(difluoromethyl)-1H-benzimidazol-1-yl]-6-(4-morpholinyl)-1,3,5-triazin-2-yl]-1-piperazinyl}sulfonyl)ethyl]-N,N-dimethylamine], for which the melting point fell in the range of 244 to 246 °C.
On the same count and under the same terms, in the case of `COc1cccc2c1nc(C(F)F)n2-c1nc(N2CCOCC2)nc(N2CCCC(NS(=O)(=O)CCl)C2)n1` (stereo in doubt) [Example 62, chloro-N-{(3S)-1-[4-[2-(difluoromethyl)-4-methoxy-1H-benzimidazol-1-yl]-6-(4-morpholinyl)-1,3,5-triazin-2-yl]-3-piperidinyl}methanesulfonamide] it was 166 to 168 °C.
On the same count and under the same terms, in the case of `COc1cccc2c1nc(C(F)F)n2-c1nc(N2CCOCC2)nc(N(CCCN(C)C)C2CCN(S(=O)(=O)CCl)CC2)n1` (as salt: hydrochloride) [Example 59, N^1-{1-[(chloromethyl)sulfonyl]-4-piperidinyl}-N^1-[4-[2-(difluoromethyl)-4-methoxy-1H-benzimidazol-1-yl]-6-(4-morpholinyl)-1,3,5-triazin-2-yl]-N^3,N^3-dimethyl-1,3-propanediamine] it was 222 to 225 °C; in that of `COc1cccc2c1nc(C(F)F)n2-c1nc(-c2ccc(N(C)S(=O)(=O)CCN(C)C)cc2)nc(N2CCOCC2)n1` (as salt: methanesulfonate) [Example 75, N-{4-[4-[2-(difluoromethyl)-4-methoxy-1H-benzimidazol-1-yl]-6-(4-morpholinyl)-1,3,5-triazin-2-yl]phenyl}-2-(dimethylamino)-N-methylethanesulfonamide], 218 to 220 °C.

(Values after patent US8772287B2, “Pyrimidinyl and 1,3,5-triazinyl benzimidazole sulfonamides and their use in cancer therapy” (VetDC, Inc., priority 2009, dated 2014).)
